Experimental data taken from PubChem BioAssay (NCI).
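How tested: cells in 96-well plates exposed to compound for 48 hours at five concentrations. Abbreviation: GI50, concentration required for 50% inhibition of growth. Definition used: TGI = concentration required for complete inhibition of growth.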

Legend:
Experiment in all cases: NCI-60 cell line screen, 48 h
HOP-62 NSCLC = system: HOP-62 NSCLC
LXFL 529 NSCLC = system: LXFL 529 NSCLC
DLD-1 colon = system: DLD-1 colon
SF-539 CNS = system: SF-539 CNS
M19-MEL melanoma = system: M19-MEL melanoma
KM20L2 colon = system: KM20L2 colon
DU-145 prostate = system: DU-145 prostate
MOLT-4 leukemia = system: MOLT-4 leukemia
SN12C renal = system: SN12C renal
HOP-18 NSCLC = system: HOP-18 NSCLC

Row | Compound | TGI (HOP-62 NSCLC) [µM] | TGI (LXFL 529 NSCLC) [µM] | TGI (DLD-1 colon) [µM] | TGI (SF-539 CNS) [µM] | TGI (M19-MEL melanoma) [µM] | TGI (KM20L2 colon) [µM] | TGI (DU-145 prostate) [µM] | TGI (MOLT-4 leukemia) [µM] | TGI (SN12C renal) [µM] | TGI (HOP-18 NSCLC) [µM] | GI50 (HOP-62 NSCLC) [µM] | GI50 (SF-539 CNS) [µM] | GI50 (DU-145 prostate) [µM] | GI50 (MOLT-4 leukemia) [µM] | GI50 (SN12C renal) [µM]
1 | CCN(CC)CC(C)(C)C(=O)/C=C/c1ccc(/C=C/C(=O)C(C)(C)CN(CC)CC)cc1 | 5.01 | 0.417 | 1.26 | 2.54 | 4.23 | 2.51 | 5.29 | 0.546 | 1.06 |  |  |  |  |  | 
2 | CC1=NN(C(=O)c2ccc(Cl)cc2)C(=O)/C1=C/c1ccco1 | > 100 | > 100 | > 100 | > 100 | > 100 | > 100 |  | > 100 | > 100 |  |  |  |  |  | 
3 | CCOC(=O)c1c2cccccc2n2c(=O)cc(C)nc12 | > 100 | > 100 |  | > 100 |  | > 100 |  | > 100 | > 100 |  |  |  |  |  | 
4 | O=C(c1ccccc1)c1c(CC(O)c2ccccc2)n(C(=O)c2ccccc2)c2ccccc12 (stereo not given) | > 100 | > 100 | > 100 | > 100 | > 100 | > 100 |  | 54.4 |  |  |  |  |  |  | 
5 | COc1ccc(NC(=O)CCc2cc(C(C)(C)C)n[nH]2)cc1 | > 100 | > 100 |  | > 100 | > 100 | > 100 |  | > 100 | > 100 | > 100 |  |  |  |  | 
6 | CCCCCCCCCCCCCC(=O)OCC1OC(n2cc(F)c(=O)[nH]c2=O)C(N)C(OC(=O)CCCCCCCCCCCCC)C1O (stereo not given) | > 100 | > 100 |  | > 100 | > 100 | > 100 |  | > 100 | > 100 |  |  |  |  |  | 
7 | COc1cc(CC(C(=O)O)C(=O)O)c(OC)cc1CC(C(=O)O)C(=O)O | > 100 | > 100 | > 100 | > 100 | > 100 | > 100 |  | > 100 | > 100 |  |  |  |  |  | 
8 | CCOC(=O)c1cc(-c2ccc(OC)c(OC)c2)[nH]c1N/N=C/c1c(Cl)cccc1Cl | 14.5 |  |  | 5.27 |  |  | 8.5 | > 80.9 | 22.3 |  | 2.51 | 1.44 | 2.38 | 3.27 | 3.64
9 | COC(=O)C1=C(C(=O)OC)C2OC1c1cc3ccccc3cc12 | 34.7 |  |  | 12.1 |  |  | 21.6 | 3.22 | 30.8 |  |  |  |  |  | 
10 | CC(C)(C)NC/C(=C\c1ccccc1)C(=O)c1ccccc1 | 11.4 |  |  | 7.2 |  |  | 9.63 | 45.9 | 6.34 |  | 3.44 | 3.01 | 2.68 | 2.23 | 1.95
11 | COc1ccc2c(c1)C(=O)c1c-2n(CCCN)c(=O)c2cc(OC)c(OC)cc12 | 0.133 |  |  | 1.29 |  |  | 0.153 |  | 1.51 |  | < 0.01 | 0.164 | < 0.01 | < 0.01 | 0.112
12 | O=C(O)CC1CC=C[C@H]2c3cc4c(cc3C(=O)NC12)OCO4 (stereo not given in full) | > 75 | > 75 | > 75 | > 75 | > 75 | > 75 |  | > 75 | > 75 |  |  |  |  |  | 
13 | Cc1cc(C)nc(NS(=O)(=O)c2ccc(NC(=O)c3ccc(Cl)c4c(Nc5ccc(S(=O)(=O)N=C(N)N)cc5)c5ccccc5nc34)cc2)n1 | > 100 | > 100 |  | > 100 |  | > 100 |  | 63.2 | 68.7 | > 100 |  |  |  |  | 
14 | COc1ccc(/C=c2/sc3n(c2=O)NC(c2ccc(Cl)cc2)NN=3)cc1 (stereo not given) |  | > 100 | > 100 | > 100 | > 100 | > 100 |  | > 100 | > 100 |  |  |  |  |  | 
15 | COc1cc2ncn(-c3cc(OCc4ccccc4C(F)(F)F)c(C(C)=O)s3)c2cc1OC | > 25 |  |  | > 25 |  |  | > 25 | > 25 | > 25 |  | > 25 | > 25 | > 25 | > 25 | > 21.7
16 | CC(O)CN1c2ccccc2Sc2ccc(Cl)cc21 (stereo not given) | > 10 |  |  | > 10 |  |  | > 10 | > 10 | > 10 |  |  |  |  |  | 
17 | CC(=O)O/N=C(Cl)/C(Cl)=N/OC(C)=O | > 100 | > 100 | > 100 | > 100 |  | > 100 |  | > 100 | > 100 | > 100 |  |  |  |  | 
18 | NNC(=S)Nc1cccc(Cl)c1 | > 100 |  |  | > 100 |  |  | > 100 | > 100 | > 100 |  |  |  |  |  | 
19 | OC1CCC[C@@H]1Sc1ccccc1 (stereo not given in full) | > 100 | > 100 | > 100 | > 100 | > 100 | > 100 |  | > 100 | > 100 |  |  |  |  |  | 
20 | O=C(NN1C(=O)CSC12CCCC2)C(O)c1ccccc1 (stereo not given) | > 100 |  |  | > 100 |  |  | > 100 | > 100 | > 100 |  | > 100 | > 100 | > 100 | > 100 | > 100
21 | O=C(Cn1c(C(=O)c2ccccc2)nc2ccccc21)c1ccc(F)cc1 | > 100 |  |  | > 100 |  |  | > 100 | > 28.1 | > 100 |  | 9.44 | 16 | > 48.7 | 2.49 | > 30.7
